Values of other authors in patent US20240316118A1, “ANTIVIRAL NASAL SPRAY FLAVONOIDS?BEE PROPOLIS” (priority 2022, published 2024).
Values after ≈ are worked out from the molar mass of the structure shown. Where two headings read alike, the source gives them in different places.

Experiments:
Rotavirus virions = conditions: Rhesus Rotavirus, Ref. [20]
HCV replicase = conditions: Ref. [19]
NS3 protease = NS3 protease (Hepatitis C virus genotype 1a, UniProt P26664); conditions: for Molecular Mechanisms: HCV replication: NS3 protease
Chain of NS3 protease (P26664 1027-1657): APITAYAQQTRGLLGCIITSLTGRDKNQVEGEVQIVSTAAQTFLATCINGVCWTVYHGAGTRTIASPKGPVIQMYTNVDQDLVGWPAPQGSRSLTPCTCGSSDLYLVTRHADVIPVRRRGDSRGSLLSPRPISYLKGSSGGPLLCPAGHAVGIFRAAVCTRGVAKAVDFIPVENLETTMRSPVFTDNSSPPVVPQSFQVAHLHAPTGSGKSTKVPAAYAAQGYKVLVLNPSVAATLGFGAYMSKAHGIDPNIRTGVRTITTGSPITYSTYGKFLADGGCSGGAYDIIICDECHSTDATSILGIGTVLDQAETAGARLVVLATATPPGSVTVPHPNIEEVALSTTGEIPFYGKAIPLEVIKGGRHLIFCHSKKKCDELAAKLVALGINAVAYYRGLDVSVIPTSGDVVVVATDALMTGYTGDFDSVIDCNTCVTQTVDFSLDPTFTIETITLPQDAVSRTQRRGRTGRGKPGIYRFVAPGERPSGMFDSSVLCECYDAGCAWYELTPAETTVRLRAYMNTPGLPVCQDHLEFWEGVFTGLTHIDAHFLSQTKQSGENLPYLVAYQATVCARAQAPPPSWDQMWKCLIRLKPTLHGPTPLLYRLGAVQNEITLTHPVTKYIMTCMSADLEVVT
Chain of NS3 protease (P26664 1658-1711): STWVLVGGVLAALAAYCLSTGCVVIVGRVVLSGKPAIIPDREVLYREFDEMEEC

DENV-2 virions = conditions: DENV-2, Ref. [40]
NS1 = NS1 (Dengue virus type 2, UniProt P29990); conditions: Ref. [23] (molecular docking)
Chain of NS1 (P29990 776-1127 limits assumed): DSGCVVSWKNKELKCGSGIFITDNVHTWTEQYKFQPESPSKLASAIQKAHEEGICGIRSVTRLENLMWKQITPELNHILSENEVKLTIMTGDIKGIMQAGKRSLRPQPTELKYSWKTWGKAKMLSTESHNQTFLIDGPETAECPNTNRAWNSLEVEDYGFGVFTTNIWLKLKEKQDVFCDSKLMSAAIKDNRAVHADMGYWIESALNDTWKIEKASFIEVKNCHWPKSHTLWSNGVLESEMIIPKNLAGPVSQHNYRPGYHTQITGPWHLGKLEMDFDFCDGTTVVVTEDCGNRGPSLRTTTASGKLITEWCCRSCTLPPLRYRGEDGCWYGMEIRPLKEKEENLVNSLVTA

NOX4 = conditions: NOX4, Ref. [24]
HIV protease = HIV protease (Human immunodeficiency virus type 1 group M subtype B, UniProt P04585); conditions: Ref. [27] (computational)
SARS-CoV = conditions: Vero E6 cells; read-out: half-effective concentration (EC50), SARS-CoV infection
NS5B polymerase = NS5B polymerase (Hepatitis C virus genotype 1a, UniProt P26664); conditions: for Molecular Mechanisms: HCV replication: NS5B polymerase, Refs. [33], [40]
Chain of NS5B polymerase (P26664 2421-3011): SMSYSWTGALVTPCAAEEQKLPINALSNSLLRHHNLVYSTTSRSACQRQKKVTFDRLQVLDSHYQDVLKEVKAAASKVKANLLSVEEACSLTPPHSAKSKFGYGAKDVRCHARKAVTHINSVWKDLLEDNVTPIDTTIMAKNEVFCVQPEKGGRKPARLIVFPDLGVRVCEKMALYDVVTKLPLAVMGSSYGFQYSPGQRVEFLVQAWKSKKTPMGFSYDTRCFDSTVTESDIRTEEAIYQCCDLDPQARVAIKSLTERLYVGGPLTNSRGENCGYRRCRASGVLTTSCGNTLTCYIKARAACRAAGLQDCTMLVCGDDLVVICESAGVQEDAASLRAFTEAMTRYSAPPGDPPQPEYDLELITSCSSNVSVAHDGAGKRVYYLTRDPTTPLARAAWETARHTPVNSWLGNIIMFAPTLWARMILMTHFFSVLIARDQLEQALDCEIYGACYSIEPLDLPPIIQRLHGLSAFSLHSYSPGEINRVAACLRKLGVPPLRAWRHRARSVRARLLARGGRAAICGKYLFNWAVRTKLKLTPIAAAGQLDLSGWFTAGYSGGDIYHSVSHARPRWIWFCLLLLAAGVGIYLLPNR

NS5A, HSP70, HCV virions = conditions: Ref. [41]
Envelope protein, 2 = Envelope protein, 2 (Hepatitis C virus genotype 1a, UniProt P26664); conditions: HCV Envelope protein 2, Ref. [41]
Chain of Envelope protein, 2 (P26664 384-746): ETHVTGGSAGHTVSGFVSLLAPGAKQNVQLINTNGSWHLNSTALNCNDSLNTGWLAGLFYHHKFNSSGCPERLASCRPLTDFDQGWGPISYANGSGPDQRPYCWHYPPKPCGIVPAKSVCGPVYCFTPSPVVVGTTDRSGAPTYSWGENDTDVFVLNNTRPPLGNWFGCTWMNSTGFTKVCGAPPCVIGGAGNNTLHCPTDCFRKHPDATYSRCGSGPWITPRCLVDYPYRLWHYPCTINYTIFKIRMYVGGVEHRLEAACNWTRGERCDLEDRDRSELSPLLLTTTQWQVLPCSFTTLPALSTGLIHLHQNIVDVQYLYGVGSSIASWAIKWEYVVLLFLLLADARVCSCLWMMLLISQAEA

Phosphoprotein P = conditions: Ref. [32]; for Molecular Mechanisms: viral replication: RSV
[1] = system: Dengue virus type 2 (DENV-2); conditions: Vero cells
human coronavirus OC43 = conditions: at a concentration of 60 μg/mL
bovine coronavirus NCDCV = conditions: at a concentration of 60 μg/mL
cytomegalovirus = conditions: inoculated HeLa cells; read-out: half inhibitory concentration (IC50), replication of cytomegalovirus
Influenza virions = conditions: Influenza A/WS/33, Ref. [37]
Vero cells = conditions: PEDV study
PEDV = conditions: Vero cells
Reverse transcriptase = Reverse transcriptase (Human immunodeficiency virus type 1 group M subtype B, UniProt P04585); conditions: Refs. [43], [31]
NTCP receptor = NTCP receptor (Homo sapiens, UniProt Q14973)
Chain of NTCP receptor (Q14973 whole entry): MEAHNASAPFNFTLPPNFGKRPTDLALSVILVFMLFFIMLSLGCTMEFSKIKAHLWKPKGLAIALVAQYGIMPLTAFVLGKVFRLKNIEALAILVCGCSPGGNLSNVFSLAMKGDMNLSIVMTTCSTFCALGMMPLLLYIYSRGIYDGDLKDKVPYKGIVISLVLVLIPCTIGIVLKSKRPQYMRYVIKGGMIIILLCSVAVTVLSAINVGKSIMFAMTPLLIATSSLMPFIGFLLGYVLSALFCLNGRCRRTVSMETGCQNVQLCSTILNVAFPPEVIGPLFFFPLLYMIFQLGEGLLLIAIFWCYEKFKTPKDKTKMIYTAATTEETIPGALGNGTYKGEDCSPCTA

In the case of O=c1cc(-c2ccc(O)cc2)oc2cc(O[C@@H]3O[C@H](CO)[C@@H](O)[C@H](O)[C@H]3O)cc(O)c12 [Apigenin-7-O-glucoside], the “Molecular Mechanisms: viral replication” value (Rotavirus virions) is listed as “Inhibition viral”.

For O=c1cc(-c2ccc(O)cc2)oc2cc(O)cc(O)c12 [Apigenin], the “Molecular Mechanisms: HCV replication” value (HCV replicase) is given as “Inhibition HCV” and the “Molecular Mechanisms: HCV replication” value (NS3 protease) is given as “Inhibition of HCV”.

In the case of O=C(O)[C@H]1O[C@@H](Oc2cc3oc(-c4ccccc4)cc(=O)c3c(O)c2O)[C@H](O)[C@@H](O)[C@@H]1O [Baicalin], the “Molecular Mechanisms: viral replication” value (DENV-2 virions) is listed as “Inhibition of viral replication,” and the “Molecular Mechanisms: viricidal activity” value (DENV-2 virions) is listed as “Viricidal activity”.

In the case of O=C1c2c(O)cc(O)cc2OC(c2ccc(O)cc2)C1C1C(=O)c2c(O)cc(O)cc2OC1c1ccc(O)cc1 (stereo not drawn) [Chamaejasmin], the “Molecular Mechanisms: NS1 glycosylation” value (NS1) is listed as “Inhibition of NS1 glycosylation”.

For CC1O[C@@H](OC[C@H]2OC(Oc3cc4c(O)cc(O)cc4[o+]c3-c3cc(O)c(O)c(O)c3)[C@H](O)C(O)C2O)C(O)C(O)[C@H]1O (stereo partly drawn) [Delphinidin-3-rutinoside], the “Molecular Mechanisms: HSV-1 replication” value (NOX4) is given as “Inhibition of HSV-1”.

In the case of O=c1c(O)c(-c2ccc(O)cc2)oc2cc(O[C@@H]3O[C@H](CO)[C@@H](O)[C@H](O)[C@H]3O)cc(O)c12 [Kaempferol-7-O-glucoside], the “Molecular Mechanisms: virion production” value (HIV protease) is listed as “Inhibition virion production”.

For O=c1cc(-c2ccc(O)c(O)c2)oc2cc(O)cc(O)c12 [Luteolin], the “Molecular Mechanisms: HCV replication” value (HCV replicase) is listed as “Inhibition HCV”, the CC50 (Vero E6 cells) is listed as 155 µM and the EC50 (SARS-CoV) is listed as 10.6 µM. The “Molecular Mechanisms: HCV replication” value (NS5B polymerase) was “Inhibition of HCV”.

In the case of O=C1C[C@@H](c2ccc(O)cc2)Oc2cc(O)cc(O)c21 [Naringenin], the “Molecular Mechanisms: viral translation” value (NS5A, HSP70, HCV virions) is given as “Inhibition Of viral”, the “Molecular Mechanisms: virion assembly” value (NS5A, HSP70, HCV virions) is given as “Inhibition of virion” and the “Molecular Mechanisms: virion assembly” value (Envelope protein, 2) is given as “Inhibition of virion assembly,”.

In the case of COc1ccc(-c2cc(=O)c3c(OC)c(OC)c(OC)c(OC)c3o2)cc1OC [Nobiletin], the “Molecular Mechanisms: viral replication” value (Phosphoprotein P) is listed as “Inhibition of viral replication,” and the “Molecular Mechanisms: RSV entry into cells” value (Phosphoprotein P) is listed as “Inhibition of RSV entry into cells”.

For O=c1c(O)c(-c2ccc(O)c(O)c2)oc2cc(O)c(O)c(O)c12 [Quercetagetin], the “Molecular Mechanisms: RNA binding to NS5B” value (NS5B polymerase; HCV, Ref. [39]) is listed as “Inhibition of RNA binding to NS5B”.

In the case of O=c1c(O)c(-c2ccc(O)c(O)c2)oc2cc(O)cc(O)c12 [Quercetin, 2-(3,4-dihydroxyphenyl)-3,5,7-trihydroxy-4H-1 benzopyran-4-one], the “DENV-2 ribonucleic acid (RNA) reduction” value [1] is given as 67%, the “IC50, DENV-2 replication” value [1] is given as 35.7 µg/mL (≈ 118 µM) and the “Molecular Mechanisms: viral translation” value (NS5A, HSP70, HCV virions) is given as “Inhibition Of viral”. The “Molecular Mechanisms: virion assembly” value (NS5A, HSP70, HCV virions) was “Inhibition of virion”, the “Molecular Mechanisms: virion assembly” value (Envelope protein, 2) was “Inhibition of virion assembly,” and the “reduced infectivity of human coronavirus OC43” value (human coronavirus OC43) was 50%. The CC50 (Vero E6 cells; read-out: cytotoxicity CC50, Vero E6 cells) was 3320 µM, the “Molecular Mechanisms: virion production” value (NS3 protease; HCV NS3 protease) was “Inhibition of virion production” and the “Molecular Mechanisms: HCV replication” value (NS3 protease) was “HCV NS3 protease Inhibition of HCV replication,”. The “reduced infectivity of bovine coronavirus NCDCV” value (bovine coronavirus NCDCV) was 50%, the “Molecular Mechanisms: HCV replication” value (NS5B polymerase) was “Inhibition of HCV” and the IC50 (cytomegalovirus) was 3.2 ± 0.8 µM.

In the case of C[C@@H]1O[C@@H](Oc2c(-c3ccc(O)c(O)c3)oc3cc(O)cc(O)c3c2=O)[C@H](O)[C@H](O)[C@H]1O [Quercetin-3-rhamnoside], the “Molecular Mechanisms: virus infection” value (Influenza virions) is listed as “Inhibition of virus infection”.

In the case of COc1ccc(-c2cc(=O)c3c(OC)c(OC)c(OC)c(OC)c3o2)cc1 [Tangeretin], the “Molecular Mechanisms: viral replication” value (Phosphoprotein P) is listed as “Inhibition of viral replication,” and the “Molecular Mechanisms: RSV entry into cells” value (Phosphoprotein P) is listed as “Inhibition of RSV entry into cells”.

In the case of C[C@@H]1O[C@@H](Oc2cc(O)c3c(=O)c(O)c(-c4ccc(O)c(O)c4)oc3c2)[C@H](O)[C@H](O)[C@H]1O [quercetin 7-O-rhamnoside], the “50% cytotoxicity concentration (CC50)” value (Vero cells) is given as 100 µg/mL and the “IC50, PEDV replication” value (PEDV) is given as 0.014 µg/mL (≈ 0.0312 µM).

In the case of CC(C)=CC[C@@]12Oc3cc(O)c([C@H]4C=C(C)C[C@H](c5ccc(O)cc5O)[C@H]4C(=O)c4ccc(O)cc4O)c(O)c3C(=O)[C@]1(O)Oc1cc(O)ccc12 [sanggenon O], the “Molecular Mechanisms: NS1 glycosylation” value (NS1) is given as “Inhibition of NS1 glycosylation”.

For Catechin, the “Molecular Mechanisms: viral translation” value (NS5A, HSP70, HCV virions) is given as “Inhibition Of viral” and the “Molecular Mechanisms: virion assembly” value (NS5A, HSP70, HCV virions) is given as “Inhibition of virion”.

For epigallocatechin-3-gallate [EGCG], the “Molecular Mechanisms: HIV replication” value (Reverse transcriptase) is given as “Inhibition of HIV”, the “Molecular Mechanisms: virion production” value (HIV protease) is given as “Inhibition virion production” and the “Molecular Mechanisms: HBV entry into cells” value (NTCP receptor) is given as “Inhibition of HBV entryinto”. The “Molecular Mechanisms: NS1 glycosylation” value (NS1) was “Inhibition of NS1 glycosylation”.
